Source: patent US11524966B1 (Valo Early Discovery, Inc., priority 2017, dated 2022)

Molecular target: T1, USP25 (USP25-His6, Boston Biochem E-546) (Homo sapiens, UniProt Q9UHP3)
T1 construct: His6; purchased Boston Biochem E-546
T1 sequence (Q9UHP3 1-1055): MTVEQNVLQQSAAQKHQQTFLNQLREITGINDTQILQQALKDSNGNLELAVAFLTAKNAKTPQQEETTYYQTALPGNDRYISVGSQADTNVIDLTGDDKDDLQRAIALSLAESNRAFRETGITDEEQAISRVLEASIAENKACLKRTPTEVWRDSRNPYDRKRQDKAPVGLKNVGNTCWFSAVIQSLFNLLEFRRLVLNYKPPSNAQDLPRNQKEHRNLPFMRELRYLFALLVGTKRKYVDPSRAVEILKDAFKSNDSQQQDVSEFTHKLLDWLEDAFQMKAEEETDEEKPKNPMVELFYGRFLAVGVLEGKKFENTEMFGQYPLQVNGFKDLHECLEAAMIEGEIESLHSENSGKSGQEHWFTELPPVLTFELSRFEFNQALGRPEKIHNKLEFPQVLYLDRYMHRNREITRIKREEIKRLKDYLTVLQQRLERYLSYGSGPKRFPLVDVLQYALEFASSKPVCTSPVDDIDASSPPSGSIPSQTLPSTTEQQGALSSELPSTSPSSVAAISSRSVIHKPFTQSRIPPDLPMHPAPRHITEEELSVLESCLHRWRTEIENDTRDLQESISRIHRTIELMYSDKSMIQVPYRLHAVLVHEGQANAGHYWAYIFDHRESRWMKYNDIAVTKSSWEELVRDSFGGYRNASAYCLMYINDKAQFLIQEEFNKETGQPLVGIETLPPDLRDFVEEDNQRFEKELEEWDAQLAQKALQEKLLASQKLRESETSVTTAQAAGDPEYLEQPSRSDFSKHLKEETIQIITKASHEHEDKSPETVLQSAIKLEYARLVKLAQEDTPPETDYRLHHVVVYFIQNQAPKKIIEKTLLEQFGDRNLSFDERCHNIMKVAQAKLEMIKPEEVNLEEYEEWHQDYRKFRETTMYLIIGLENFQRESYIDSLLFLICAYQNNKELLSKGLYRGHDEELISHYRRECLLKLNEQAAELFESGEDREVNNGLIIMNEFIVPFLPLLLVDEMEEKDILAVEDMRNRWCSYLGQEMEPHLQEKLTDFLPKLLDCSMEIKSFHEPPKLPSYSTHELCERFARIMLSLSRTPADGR
Test: Ubiquitin-Rhodamine 110 Assay for USP25 Activity, Example A-2
Format: biochemical
Details: Ubiquitin-Rhodamine 110 assay, Example A-2; read-out: USP25 A-2 IC50 range
In short: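 Steps: compound dilutions (top 25 μM, 3-fold, 10 points) were preincubated 30 min with 75 pM USP25-His6; 25 nM Ub-Rh110 substrate was added under initial-velocity conditions; after 45 min at room temperature, 10 mM citric acid stopped the reaction before fluorescence reading.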

| SMILES | IC50 |
| --- | --- |
| Cc1ccc2c(N)c(C(=O)N[C@H]3COc4cc(N5C[C@@H]6CC[C@H]5CN6)ncc4C3)sc2n1 [Example 75, N-((R)-7-((1S, 4S)-2 5-diazabicyclo[2.2.2]octan-2-yl)-3,4-dihydro-2H-pyrano[3,2-c]pyridin-3-yl)-3-amino-6-methylthieno[2,3-b]pyridine-2-carboxamide] | 1 to 50 nM |
| Cc1ccc2c(N)c(C(=O)N[C@H]3COc4cc(N5C[C@H]6CC[C@@H]5CN6)ncc4C3)sc2n1 [Example 76, N-((R)-7-((1 R,4R)-2,5-diazabicyclo[2.2.2]octan-2-yl)-3,4-dihydro-2H-pyrano[3,2-c]pyridin-3-yl)-3-amino-6-methylthieno[2,3-b]pyridine-2-carboxamide] | 50 to 200 nM |
| Cc1cnc2c(N)c(C(=O)N[C@H]3COc4c(C#N)c(N5CC6CC(C5)N6)cc(F)c4C3)sc2n1 [Example 77, N-((3R)-7-(3,6-diazabicyclo[3.1.1]heptan-3-yl)-8-cyano-5-fluorochroman-3-yl)-7-amino-3-methylthieno[2,3-b]pyrazine-6-carboxamide] | 200 to 2000 nM |
| Cc1ccc2c(N)c(C(=O)N[C@H]3COc4c(F)c(N5CC6CNCC(C5)O6)cc(F)c4C3)sc2n1 [Example 78, N-((3R)-7-(9-oxa-3,7-diazabicyclo[3.3.1]nonan-3-yl)-5,8-difluorochroman-3-yl)-3-amino-6-methylthieno[2,3-b]pyridine-2-carboxamide] | 1 to 50 nM |
| Cc1ccc2c(N)c(C(=O)N[C@H]3COc4cc(N5CC6CNCC(C5)O6)c(F)c(F)c4C3)sc2n1 [Example 79, N-((3R)-7-(9-oxa-3,7-diazabicyclo[3.3.1]nonan-3-yl)-5,6-difluorochroman-3-yl)-3-amino-6-methylthieno[2,3-b]pyridine-2-carboxamide] | 1 to 50 nM |
| Cc1ccc2c(N)c(C(=O)N[C@H]3COc4cc([C@H]5CCNC[C@@H]5F)ccc4C3)sc2n1 [Example 80, 3-amino-N-((R)-7-((3R,4R)-3-fluoropiperidin-4-yl)chroman-3-yl)-6-methylthieno[2,3-b]pyridine-2-carboxamide] | 50 to 200 nM |
| Cc1ccc2c(N)c(C(=O)N[C@H]3COc4cc([C@@H]5CCNC[C@H]5F)ccc4C3)sc2n1 [Example 81, 3-amino-N-((R)-7-((3S,4S)-3-fluoropiperidin-4-yl)chroman-3-yl)-6-methylthieno[2,3-b]pyridine-2-carboxamide] | 50 to 200 nM |
| Cc1ccc2c(N)c(C(=O)N[C@H]3COc4cc([C@H]5CCNC[C@H]5F)ccc4C3)sc2n1 [Example 82, 3-amino-N-((R)-7-((3S,4R)-3-fluoropiperidin-4-yl)chroman-3-yl)-6-methylthieno[2,3-b]pyridine-2-carboxamide] | 1 to 50 nM |
| Cc1ccc2c(N)c(C(=O)N[C@H]3COc4cc([C@@H]5CCNC[C@@H]5F)ccc4C3)sc2n1 [Example 83, 3-amino-N-((R)-7-((3R,4S)-3-fluoropiperidin-4-yl)chroman-3-yl)-6-methylthieno[2,3-b]pyridine-2-carboxamide] | 50 to 200 nM |
| CCn1ccc2cc(C(=O)N[C@H]3COc4c(F)c([C@@H]5CCNC[C@@H]5O)cc(F)c4C3)nnc21 [Example 84, N-((R)-5,8-difluoro-7-((3R,4S)-3-hydroxypiperidin-4-yl)chroman-3-yl)-7-ethyl-7H-pyrrolo[2,3-c]pyridazine-3-carboxamide] | > 2000 nM |
| CCn1ccc2cc(C(=O)N[C@H]3COc4c(F)c([C@H]5CCNC[C@H]5O)cc(F)c4C3)nnc21 [Example 85, N-((R)-5,8-difluoro-7-((3S,4R)-3-hydroxypiperidin-4-yl)chroman-3-yl)-7-ethyl-7H-pyrrolo[2,3-c]pyridazine-3-carboxamide] | > 2000 nM |
| CO[C@@H]1CN(c2cc(F)c3c(c2F)OC[C@H](NC(=O)c2sc4nc(C)ccc4c2N)C3)C[C@H]1N [Example 86] | 200 to 2000 nM |
| CO[C@H]1CN(c2cc(F)c3c(c2F)OC[C@H](NC(=O)c2sc4nc(C)ccc4c2N)C3)C[C@@H]1N [Example 87, 3-amino-N-((R)-7-((3S,4S)-3-amino-4-methoxypyrrolidin-1-yl)-5,8-difluorochroman-3-yl)-6-methylthieno[2,3-b]pyridine-2-carboxamide] | 200 to 2000 nM |
